Assay results: patent US20170184612A1, “USE OF LEUKOCYTES AND NOVEL BIOMARKERS IN THE DIAGNOSIS, CONFIRMATION, AND TREATMENT OF A NEUROLOGICAL DISORDER” (The Trustees of Columbia University in the City of New York, priority 2014, published 2017)
Where a SMILES comes first, the peptide text is derived from it. The star is where a group is joined. Cbz = O=C(OCc1ccccc1)*; CH2F = FC*

Columns and labels:
[1] = test system: SN murine neuronal cultures; assay: NM and MHC-I induction by L-DOPA in SN neuronal cultures; format: cell-based, mouse
Text: To enhance cytosolic DA, the DA precursor, L-DOPA, was used, which is accumulated by amino acid transport and converted into DA in the cytosol. Exposure to high levels of L-DOPA can produce NM in both catecholaminergic and nominally non-catecholaminergic cells (Sulzer et al., 2000). […] SN murine neuronal cultures were exposed to L-DOPA under conditions that substantially increase cytosolic DA as measured by intracellular patch electrochemistry (Mosharov et al., 2009) and promote NM production as observed by brightfield microscopy (Sulzer et al., 2000).
IFN-γ (R&D Systems) was used at a range of non-toxic concentrations for neurons or OT-1 cells (10 μg/ml-100 ng/ml, 72h). 12-well cell culture plates were pre-treated with LPS (500 ng/ml, Sigma-Aldrich), NM (5 μg/ml), α-syn, Nit-α-syn or Mut-α-syn (200 μg/ml, kindly provided by Peter Lansbury, Harvard University) for 72 h before plating 45,000-50,000 microglial cells/well for an additional 24h. A neutralizing IFN-γ antibody (1:500, PBL InterferonSource) was used to block IFN-γ released from microglia. VM neurons were incubated for 72 h with microglial medium pre-stimulated by LPS, NM, α-syn, Nit-α-syn or Mut-α-syn. As a control experiment, we directly incubated VM neurons with the same compounds in the absence of microglia. In another set of experiments, VM, cortical and striatal primary neurons were incubated for 72 h with microglial medium pre-stimulated by LPS, NM, α-syn. NM was induced in SN cultured neurons by using L-DOPA (Sulzer et al., 2000) (Sigma Aldrich). […]
Images were captured using a Leica SP5 microscope system. There was no fluorescence bleed-through of secondary antibodies under the conditions used. […]
In order to assess the proportion of TH^+ and MAP-2^+ neurons that expressed MHC-I^+, first TH^+ and MAP-2^+ neurons were counted in 24 fields surrounding the border of the well at 20× magnification. The number of TH^+ or MAP-2^+ neurons with intact soma and two or more neurites equal to or greater than the diameter of the cell soma was counted. […]

VM DA (TH+) neurons = assay: OT-1 T cell cytotoxicity (killing) assay on VM DA neurons; format: cell-based, mouse; conditions: for effect on CTL mediated neuronal death: neurons with IFN-γ, SIINFEKL and OT-1 cells
Description: OT-1 CD8^+ cell proliferation was assessed by BrdU incorporation. For OT-1 T cell cytotoxicity assays, DC and VM (from C57BL/6 and 56.129P2-B2mtm1Unc/J mice) cell cultures were incubated with neuronal medium or neuronal medium containing 100 ng/ml of IFN-γ (R&D Systems). Neurons were loaded with or without […] (SEQ ID NO: 9) peptide (1 μM), and, subsequently in vitro activated OT-1 cells were added at a density of 100,000 cells/well and co-incubated for 24 h.
We used the same conditions for VM cell cultures with microglial medium previously stimulated with LPS, NM or α-syn instead of IFN-γ. Neurons were pre-incubated with IFN-γ and […] (SEQ ID NO: 9) peptide as above, and then with: 1) a pan-caspase general inhibitor (Z-VAD-FMK, 20 μM, 24h, IMGENEX); 2) a specific granzyme/perforin inhibitor (concanamycin A, 100 nM, 24h, Sigma Aldrich); 3) a specific Fas/FasL antagonist (Kp7-6, 1 mM, 24h, EMD Biosciences) and 4) concanamycin A and Kp7-6 together. OT-1 cells were then added to the culture (100,000 cells/well) and maintained for 24 h.
Following immunocytochemical staining of VM neurons, we assessed the proportion of surviving DA (TH^+) and non-DA cells (MAP-2^+, TH^−). Total numbers of TH^+ and MAP-2^+ neurons were counted in 24 fields surrounding the border of the well at 20× magnification. The number of surviving TH+ neurons with an intact soma and two or more neurites equal to or greater than the diameter of the cell soma was counted and normalized to the number in untreated cultures.

primary VM neurons = assay: MHC-I expression of VM neurons after microglial conditioned medium; format: cell-based, mouse
Description: IFN-γ (R&D Systems) was used at a range of non-toxic concentrations for neurons or OT-1 cells (10 μg/ml-100 ng/ml, 72h). 12-well cell culture plates were pre-treated with LPS (500 ng/ml, Sigma-Aldrich), NM (5 μg/ml), α-syn, Nit-α-syn or Mut-α-syn (200 μg/ml, kindly provided by Peter Lansbury, Harvard University) for 72 h before plating 45,000-50,000 microglial cells/well for an additional 24h. A neutralizing IFN-γ antibody (1:500, PBL InterferonSource) was used to block IFN-γ released from microglia. VM neurons were incubated for 72 h with microglial medium pre-stimulated by LPS, NM, α-syn, Nit-α-syn or Mut-α-syn. As a control experiment, we directly incubated VM neurons with the same compounds in the absence of microglia. In another set of experiments, VM, cortical and striatal primary neurons were incubated for 72 h with microglial medium pre-stimulated by LPS, NM, α-syn. NM was induced in SN cultured neurons by using L-DOPA (Sulzer et al., 2000) (Sigma Aldrich). For foreign protein processing and subsequent antigen presentation, VM cultures were maintained for 7 days in either 1) BSA/serum-free neuronal medium, 2) BSA/serum-free supplemented with OVA (2.5 mg/ml), adding IFN-γ (100 ng/ml) or saline for an additional 72h.
Images were captured using a Leica SP5 microscope system. There was no fluorescence bleed-through of secondary antibodies under the conditions used. MHC-I label observed in the neuronal cultures obtained from wild type mice was absent in neurons from β2m KO mice (FIG. 3A).
In order to assess the proportion of TH^+ and MAP-2^+ neurons that expressed MHC-I^+, first TH^+ and MAP-2^+ neurons were counted in 24 fields surrounding the border of the well at 20× magnification. The number of TH^+ or MAP-2^+ neurons with intact soma and two or more neurites equal to or greater than the diameter of the cell soma was counted. Then, the fluorescent filter was inserted for each field to determine how many of these neurons also expressed MHC-I.

[2] = test system: peripheral blood mononuclear cells (PBMC), T cells; assay: ELISpot assay, IFNg and IL-5 reactivity combined, T cell response to α-syn epitopes; format: cell-based, human; conditions: flag 1/0 per peptide
Description: Blood from age matched controls and PD patients were obtained and mononuclear cells were isolated by gradient centrifugation.
Release of the cytokines gamma-interferon, which measures activation of CD4+ and/or CD8+ T cells, and the interleukin, IL-5, which measures activation of CD4+ T cells was measured by ELISpot assay. […] After 22 hours of stimulation at 37 C, the cells were removed and release of cytokines was measured by colorimetric detection of spot-forming cells (SFC). Confirmed release of cytokine is determined by the presence of a minimum of 20 SFC per million cells.
The binding algorithms in SubAim 1 predict how well the peptides would bind to MHC if present, but not if they are present in patients. To determine this, the presence of T cell response against the candidate antigens by patient blood-derived peripheral blood mononuclear cells (PBMC) is assessed by ELISPOT assays upon stimulation with the peptides. This assay detects and quantifies cytokine release (in this case, IFNγ and IL-5) from specific activated T cells.
Data were obtained from blood samples (25 ml) from 44 PD patients and 24 age-matched controls. The experiments were conducted blindly. PBMCs from these samples were isolated and exposed to pools comprising the 122 candidate class I and class II antigens and phosphorylated S129 epitopes generated in Subaim 1. For the PBMCs responsive to the pooled peptides, the response was then deconvoluted to identify individual epitopes.
PMBC fractions are recovered by standard methods with Ficoll gradient and T cells expansion (Oseroff et al., 2010). The methods for the analysis of T cell reactions and measurement of cytokines production using the enzyme-linked immunosorbent spot (ELISPOT) assay are published in analogous experiments to discover antigens in multiple sclerosis (Lolli et al., 2013) and in hay fever allergens (Oseroff et al., 2010). T cell responses are determined by measuring IFNγ and IL-5 release by ELISPOT. Statistical analysis of differences between populations is expected to be non-parametric and analyzed with the U-Mann-Whitney test. If there were a normal distribution of response, which is a priori unlikely as some patients have no T cell response, with an SD=1, 8 patients per group would be required to provide a p>90% that the study detect a >2 fold difference at a two-sided 0.05 significance level.

[3] = test system: peripheral blood mononuclear cells (PBMC), T cells; assay: ELISpot assay, IL-5 release (SFC) after stimulation with a-synuclein epitope pools; format: cell-based, human; conditions: for IL-g Peptide + (donors positive to the peptide): of donors tested (peptide); for IL-g Peptide +: number of donors positive to the single peptide
Procedure, shortened: (§1)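 Ficoll-isolated PBMC from PD patients and age-matched controls were stimulated 22 h at 37 °C with pools of candidate α-syn class I/II and phospho-S129 epitopes, then deconvoluted to single epitopes in responders. IFNγ and IL-5 spot-forming cells were counted colorimetrically, with ≥20 SFC per million cells counted as a response.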

[4] = test system: peripheral blood mononuclear cells (PBMC), T cells; assay: ELISpot assay, gamma-interferon release (SFC) after stimulation with a-synuclein epitope pools; format: cell-based, human; conditions: for IFNg Peptide + (donors positive to the peptide): of donors tested (peptide); for IFNg Peptide +: number of donors positive to the single peptide
Procedure, shortened: as §1

[5] = Patients Summary, PD patients, single peptide
[6] = second 'Pool Stimulated' section (from r296), 12 donors tested
[7] = peptide + / donors tested (peptide), second 'Pool Stimulated' section (from r296), 12 donors tested
[8] = single peptide, second 'Pool Stimulated' section (from r296), 12 donors tested
[9] = Normals Summary, single peptide

Compound	Peptides + in Patients & Normals [2]	IL-g Peptide + (donors positive to the peptide) ([3]; Patients Summary, PD patients)	IL-g Avg SFC [3, 5] [SFC]	IL-g Response Frequency [3, 5] [%]	IL-g Total SFC [3, 5] [SFC]	IL-g Peptide + [3, 6]	IL-g Response Frequency [3, 7] [%]	IL-g Total SFC [3, 8] [SFC]	IFNg Peptide + (donors positive to the peptide) ([4]; Patients Summary, PD patients)	IFNg Response Frequency [4, 5] [%]	IFNg Total SFC [4, 5] [SFC]	IFNg Peptide + [4, 6]	IFNg Response Frequency [4, 7] [%]	IFNg Total SFC [4, 8] [SFC]	further results
N[C@@H](Cc1ccc(O)c(O)c1)C(=O)O [L-DOPA, L-dihydroxyphenylalanine]															neurons in which NM was induced [1]: 40%; TH+ neurons with MHC-I display ([1]; TH+ neurons): ~10%; TH− neurons with MHC-I display ([1]; TH− neurons): ~7%
α-syn: alpha synuclein protein, wild type															neuronal death (VM DA (TH+) neurons; SIINFEKL, CTLs and medium conditioned by microglia exposed to the substance): caused extensive neuronal death; cell surface MHC-I presentation by VM neurons (primary VM neurons; conditioned medium from microglia incubated 72 hours with the substance): elicited cell surface MHC-I presentation; induction of neuronal MHC-I (primary VM neurons; cultures directly exposed, absence of microglial cells): no induction
3521.0043 (VFMKGLSKAK; listed as Homo sapiens)	1	1	191	33	191	1	100	93.3	0	0	0	1	100	66.7	IL-g Avg SFC [3, 8]: 93.3 SFC; IFNg Avg SFC [4, 8]: 66.7 SFC
3521.0016 (DVFMKGLSK; listed as Homo sapiens)	0	0		0	0				0	0	0				IL-g Peptide + (donors positive to the peptide) ([3]; Normals Summary): 1; IL-g Avg SFC [3, 9]: 180 SFC; IL-g Response Frequency [3, 9]: 100%; IL-g Total SFC [3, 9]: 780 SFC; IFNg Peptide + (donors positive to the peptide) ([4]; Normals Summary): 1; IFNg Avg SFC [4, 9]: 673 SFC; IFNg Response Frequency [4, 9]: 100%; IFNg Total SFC [4, 9]: 673 SFC
3521.0053 (KAKEGVVAAA; listed as Homo sapiens)	0	0		0	0	0	0	0	0	0	0	0	0	0	
C/C=C/[C@H]1O[C@@](O)([C@@H](C)[C@H](O)[C@H](C)[C@H]2OC(=O)/C(OC)=C/C(C)=C/[C@@H](C)[C@@H](O)[C@@H](CC)[C@@H](O)[C@H](C)C/C(C)=C/C=C/[C@@H]2OC)C[C@@H](O[C@H]2C[C@@H](O)[C@H](OC(N)=O)[C@@H](C)O2)[C@@H]1C [concanamycin A]															effect on CTL mediated neuronal death (VM DA (TH+) neurons): protect against CTL mediated neuronal death
COC(=O)C[C@H](NC(=O)[C@H](C)NC(=O)[C@@H](NC(=O)OCc1ccccc1)C(C)C)C(=O)CF [Z-VAD-FMK] (Cbz-Val-Ala-Asp(OMe)-CH2F)															effect on CTL mediated neuronal death (VM DA (TH+) neurons): protect against CTL mediated neuronal death
3521.0052 (KTKQGVAEAA; listed as Homo sapiens)	0	0		0	0	0	0	0	0	0	0	0	0	0	
3521.007 (GVVAAAEKTK; listed as Homo sapiens)	0	1	23	33	23	0	0	0	2	67	225	0	0	0	IFNg Avg SFC [4, 5]: 113 SFC
3521.001 (VFMKGLSKA; listed as Homo sapiens)	1	1	634	33	634				1	33	75				IL-g Peptide + (donors positive to the peptide) ([3]; Normals Summary): 1; IL-g Avg SFC [3, 9]: 193 SFC; IL-g Response Frequency [3, 9]: 100%; IL-g Total SFC [3, 9]: 193 SFC; IFNg Peptide + (donors positive to the peptide) ([4]; Normals Summary): 1; IFNg Avg SFC [4, 9]: 220 SFC; IFNg Response Frequency [4, 9]: 100%; IFNg Total SFC [4, 9]: 220 SFC; IFNg Avg SFC [4, 5]: 75 SFC
